Key:
MDA-MB-231 cells [1] = assay: MTT cytotoxicity assay, MDA-MB-231; format: cell-based, human; details: Homo sapiens; MDA-MB-231, MTT, mean ± SD of two independent experiments in triplicate; read-out: IC50 (cell survival)
Description: The synthesized chrysin derivatives were evaluated for cytotoxic efficacy in the human breast cancer cell line, MDA-MB-231, using the 3-(4,5-dimethylthiazol-2yl)-2,5-diphenyltetrazolium bromide (MTT) colorimetric assay and doxorubicin was used as a reference anticancer drug.
(§1) A panel of cancer cell lines, including breast (MDA-MB-231, BT20), brain (U251), and colon (HCT116), as well as a normal cell line (human mammary epithelial cells: HMECs), were grown as adherent monolayers in flasks with Dulbecco’s Modified Eagle Medium (DMEM), supplemented with 10% fetal bovine serum (FBS) and 1% penicillin and streptomycin in a humidified incubator with 5% CO2 at 37 °C.
The (3-(4,5-dimethylthiazol-2-yl)-2,5-diphenyltetrazolium bromide) (MTT) assay was used to determine the cytotoxicity of the 15 chrysin derivatives in the above-mentioned cell lines. Briefly, cells were harvested with 0.05% trypsin, 2.21 mM ethylenediaminetetraacetic acid (EDTA), 1× from Corning (Corning, NY, USA), and suspended at a final density of 5 × 10^3 cells/well. Cells were seeded (180 μL/well) into 96-well plates. Initially, four different concentrations of each compound were added to find the compounds with the greatest antiproliferative efficacy in the MDA-MB-231 cell line (0, 1, 10, and 100 μM). Subsequently, […] different concentrations […] of each compound were added to the remaining cell lines mentioned above. After 68 h of incubation, 20 μL of the MTT solution (4 mg/mL) were added to each well, and the plates were incubated for 4 h. This allowed viable cells to biotransform the yellow-colored MTT into dark-blue formazan crystals. Subsequently, the medium was discarded, and 150 μL of DMSO were added to each well to dissolve the formazan crystals. The absorbance was determined at 590 nm using a DTX 880 multimode detector (Beckman Coulter life sciences, IN, USA). […] The IC50 values were calculated from the cell survival percentages obtained for each compound tested at different concentrations. Similarly, the cytotoxicity of the test compounds was compared to the normal cell line (HMEC).

BT-20 = assay: MTT cytotoxicity assay, BT-20; format: cell-based; details: Homo sapiens, mean ± SEM of three independent experiments in triplicate, read-out: IC50 Breast Cancer BT-20
Description: as §1
(§2) The (3-(4,5-dimethylthiazol-2-yl)-2,5-diphenyltetrazolium bromide) (MTT) assay was used to determine the cytotoxicity of the 15 chrysin derivatives in the above-mentioned cell lines. Briefly, cells were harvested with 0.05% trypsin, 2.21 mM ethylenediaminetetraacetic acid (EDTA), 1× from Corning (Corning, NY, USA), and suspended at a final density of 5 × 10^3 cells/well. Cells were seeded (180 μL/well) into 96-well plates. Initially, four different concentrations of each compound were added to find the compounds with the greatest antiproliferative efficacy in the MDA-MB-231 cell line (0, 1, 10, and 100 μM). Subsequently, […] different concentrations […] of each compound were added to the remaining cell lines mentioned above. After 68 h of incubation, 20 μL of the MTT solution (4 mg/mL) were added to each well, and the plates were incubated for 4 h. This allowed viable cells to biotransform the yellow-colored MTT into dark-blue formazan crystals. Subsequently, the medium was discarded, and 150 μL of DMSO were added to each well to dissolve the formazan crystals. The absorbance was determined at 590 nm using a DTX 880 multimode detector (Beckman Coulter life sciences, IN, USA). The IC50 ± SD concentrations were calculated from three experiments performed in triplicate/duplicate. The IC50 values were calculated from the cell survival percentages obtained for each compound tested at different concentrations. Similarly, the cytotoxicity of the test compounds was compared to the normal cell line (HMEC).

U-251 = assay: MTT cytotoxicity assay, U-251; format: cell-based; details: Homo sapiens, mean ± SEM of three independent experiments in triplicate, read-out: IC50 Brain Cancer U-251
Description: as §1, §2

HCT116 = assay: MTT cytotoxicity assay, HCT116; format: cell-based; details: Homo sapiens, HCT-116, mean ± SEM of three independent experiments in triplicate, read-out: IC50 Colon Cancer HCT116
Description: as §1, §2

[2] = system: HMEC (human mammary epithelial cells); assay: MTT cytotoxicity assay, normal cells HMEC; format: cell-based; details: mean ± SEM of three independent experiments in triplicate
Description: as §1, §2

BT-20, U-251, and HCT116 = assay: MTT cytotoxicity assay, three cancer cell lines stated together; format: cell-based; details: range across the three cancer cell lines, read-out: IC50 values, range over BT-20, U-251 and HCT116
Description: as §1
The (3-(4,5-dimethylthiazol-2-yl)-2,5-diphenyltetrazolium bromide) (MTT) assay was used to determine the cytotoxicity of the 15 chrysin derivatives in the above-mentioned cell lines. Briefly, cells were harvested with 0.05% trypsin, 2.21 mM ethylenediaminetetraacetic acid (EDTA), 1× from Corning (Corning, NY, USA), and suspended at a final density of 5 × 10^3 cells/well. Cells were seeded (180 μL/well) into 96-well plates. Initially, four different concentrations of each compound were added to find the compounds with the greatest antiproliferative efficacy in the MDA-MB-231 cell line (0, 1, 10, and 100 μM). […] The absorbance was determined at 590 nm using a DTX 880 multimode detector (Beckman Coulter life sciences, IN, USA). The IC50 ± SD concentrations were calculated from three experiments performed in triplicate/duplicate. The IC50 values were calculated from the cell survival percentages obtained for each compound tested at different concentrations. […]

MDA-MB-231 cells [3] = assay: MitoTracker Red / Alexa Fluor 488 annexin V flow cytometry (mitochondrial membrane potential and apoptosis); format: cell-based, human; details: for Q2 % of cells (population of cells undergoing apoptosis, quadrant II): 24 h, MitoTracker Red / annexin V, 0 µM control 14.30% (4g), 14.78% (4i); for mitochondrial membrane potential (in words): incubation for 24 h
Description: MitoTracker Red and Alexa Fluor 488 annexin V kits for flow cytometry (Molecular Probes Inc., Invitrogen, Eugene, OR) were used to measure the mitochondrial membrane potential and apoptosis in MDA-MB-231 cells. […] The cells were then […] using 0.05% trypsin, 2.21 mM EDTA, 1×, counted, and 4 μL of 10 μM of the MitoTracker Red working solution were added to 1 mL of the harvested cells. The cells were incubated at 37 °C with 5% CO2 for 30 min. The cells were washed once with PBS and resuspended in 100 μL of the annexin binding buffer. The cell suspensions were incubated with 5 μL of Alexa Fluor 488 annexin V for 15 min. This was followed by the addition of 400 μL of the annexin-binding buffer. Finally, flow cytometry was used to detect the fluorescence of stained cells at the following excitation/emission maxima: Alexa Fluor® 488 annexin V: 499/521 nm; MitoTracker® Red: 579/599 nm with the BD Accuri™ C6 flow cytometer from BD Biosciences (Becton-Dickinson, San Jose, CA, USA) and analyzed using FCS express 5 plus De Novo software (Glendale, CA, USA).

MDA-MB-231 cells [4] = assay: Cell cycle analysis by PI flow cytometry; format: cell-based, human; details: 24 h, vehicle 4.46%
Description: MDA-MB-231 cells were plated into 6-well plates at 2.5 × 10^5 cells/well. […] Next, the cells were trypsinized with 0.05% trypsin, 2.21 mM EDTA, 1×, washed, counted, and resuspended in 1 mL of ice-cold PBS. The cells then were stained with propidium iodide (PI) dye and incubated for at least 15 min. The distribution of the cells in each cell cycle phase for the different concentrations was measured using a BD Accuri™ C6 flow cytometer from BD Biosciences (Becton-Dickinson, San Jose, CA, USA) and analyzed using FCS Express 5 plus De Novo software (Glendale, CA, USA).

Row | Structure (SMILES) | IC50 (MDA-MB-231 cells [1]) [µM] | IC50 (BT-20) [µM] | IC50 (U-251) [µM] | IC50 (HCT116) [µM] | IC50 [2] [µM] | IC50 (BT-20, U-251, and HCT116) [µM] | Q2 % of cells (population of cells undergoing apoptosis, quadrant II) (MDA-MB-231 cells [3]; 5 µM) [%] | Q2 % of cells (population of cells undergoing apoptosis, quadrant II) (MDA-MB-231 cells [3]; 10 µM) [%] | mitochondrial membrane potential (in words) (MDA-MB-231 cells [3]) | % of cells in G2 phase (MDA-MB-231 cells [4]; 5 µM) [%] | % of cells in G2 phase (MDA-MB-231 cells [4]; 10 µM) [%]
1 | O=C(COc1cc(O)c2c(=O)cc(-c3ccccc3)oc2c1)N/N=C/c1ccc(O)c(O)c1O [Compound 4i, (E,Z)-2-((5-Hydroxy-4-oxo-2-phenyl-4H-chromen-7-yl)oxy)-N’-(2,3,4-trihydroxybenzylidene)acetohydrazide] | 9.4 ± 1.45 | 10.4 ± 0.2 | 25.4 ± 7.53 | 20.09 ± 0.13 | > 100 | 10 to 25 | 32.25 | 42.56 | significant loss of the mitochondrial membrane potential | – | –
2 | O=C(COc1cc(O)c2c(=O)cc(-c3ccccc3)oc2c1)N/N=C/c1ccc(O)cc1O [Compound 4g, (E,Z)-N’-(2,4-Dihydroxybenzylidene)-2-((5-hydroxy-4-oxo-2-phenyl-4H-chromen-7-yl)oxy)acetohydrazide] | 5.98 ± 2.25 | 5.32 ± 0.72 | 7.64 ± 0.11 | 2.68 ± 0.15 | 8 ± 1.33 | – | 26.56 | 58.05 | significant loss of the mitochondrial membrane potential | 59.12 | 54.13
